Reference: patent publication US12351580B2, “NLRP3 modulators” (Innate Tumor Immunity, Inc., priority 2017, dated 2025)

molecular target: T1, TLR7 (Homo sapiens, UniProt Q9NYK1); experiment: In vitro human TLR7 binding reporter assay (HEK-Blue, NF-kB/AP1-inducible SEAP); format: cell-based; conditions: activity range symbols
T1 construct: host or cells: HEK-Blue cells (human HEK) co-expressing TLR7 and an NF-kB/AP1-inducible SEAP reporter
T1 sequence (Q9NYK1 27-1049): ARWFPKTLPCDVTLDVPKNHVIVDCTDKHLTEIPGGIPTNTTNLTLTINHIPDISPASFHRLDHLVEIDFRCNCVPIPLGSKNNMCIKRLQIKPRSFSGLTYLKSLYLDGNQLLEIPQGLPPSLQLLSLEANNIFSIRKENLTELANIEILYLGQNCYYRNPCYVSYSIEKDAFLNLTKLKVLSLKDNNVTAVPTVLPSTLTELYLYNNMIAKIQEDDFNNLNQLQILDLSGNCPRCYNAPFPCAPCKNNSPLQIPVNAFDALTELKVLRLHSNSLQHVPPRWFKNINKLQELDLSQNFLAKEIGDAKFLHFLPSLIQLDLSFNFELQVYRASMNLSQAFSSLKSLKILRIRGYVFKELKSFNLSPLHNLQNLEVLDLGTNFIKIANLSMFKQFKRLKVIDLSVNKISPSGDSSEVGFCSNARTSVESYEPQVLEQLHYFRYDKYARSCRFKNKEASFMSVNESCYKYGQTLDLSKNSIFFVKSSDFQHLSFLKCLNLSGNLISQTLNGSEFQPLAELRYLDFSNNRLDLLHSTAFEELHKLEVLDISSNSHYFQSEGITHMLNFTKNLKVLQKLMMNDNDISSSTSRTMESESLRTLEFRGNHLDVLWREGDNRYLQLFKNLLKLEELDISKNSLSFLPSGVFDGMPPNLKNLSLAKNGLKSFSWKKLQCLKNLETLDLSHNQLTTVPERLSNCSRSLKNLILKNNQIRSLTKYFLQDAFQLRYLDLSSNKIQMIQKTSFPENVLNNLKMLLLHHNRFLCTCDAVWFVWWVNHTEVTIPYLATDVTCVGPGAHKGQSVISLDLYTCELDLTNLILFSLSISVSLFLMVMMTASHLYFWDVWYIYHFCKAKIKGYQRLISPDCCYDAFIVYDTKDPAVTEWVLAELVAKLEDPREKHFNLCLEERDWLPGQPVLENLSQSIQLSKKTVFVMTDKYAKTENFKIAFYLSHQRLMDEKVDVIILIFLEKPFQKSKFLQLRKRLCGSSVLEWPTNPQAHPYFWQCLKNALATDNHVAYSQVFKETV
Method in brief: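 Reporter cells are plated at 15,000 per well and rested 24 h. Next day, test compounds or DMSO are dispensed, followed by 18 h incubation at 37 °C, 5% CO2.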

Row | Structure (SMILES) | EC50
1 | COc1ccc(Cn2c(CN3C(=O)OCC3c3ccccc3)nc3c(N)nc4cc(-c5cc[nH]n5)ccc4c32)cc1 (stereo not drawn) [Compound 409] | > 100 µM
2 | COc1ccc(Cn2c(Cn3cnccc3=O)nc3c(N)nc4cc(-c5cc[nH]n5)ccc4c32)cc1 [Compound 414] | > 100 µM
3 | CCN(Cc1nc2c(N)nc3cc(-c4cc[nH]n4)ccc3c2[nH]1)C(=O)C1COC1 [Compound 417] | > 100 µM
4 | CCN(Cc1nc2c(N)nc3cc(-c4ccsc4)ccc3c2[nH]1)C(C)=O [Compound 419, N-((4-Amino-7-(thiophen-3-yl)-1H-imidazo[4,5-c]quinolin-2-yl)methyl)-N-ethylacetamide] | > 100 µM
5 | CCN(Cc1nc2c(N)nc3cc(-c4cc[nH]n4)ccc3c2n1C)C(=O)OC(C)(C)C [Compound 420] | > 100 µM
6 | Nc1nc2cc(-n3cccn3)ccc2c2[nH]c(CN3CCCCC3=O)nc12 [Compound 423] | > 100 µM
7 | CCN(Cc1nc2c(N)nc3cc(-c4cncc(F)c4)ccc3c2[nH]1)C(C)=O [Compound 427] | > 100 µM
8 | CCN(Cc1nc2c(N)nc3cc(Br)ccc3c2n1CC(C)C)C(C)=O [Compound 430] | > 100 µM
9 | CCN(Cc1nc2c(N)nc3cc(Br)ccc3c2n1CCCOC)C(C)=O [Compound 431] | > 100 µM
10 | CCN(Cc1nc2c(N)nc3cc(-c4cc[nH]n4)ccc3c2[nH]1)C(=O)Cc1cccc(C)c1 [Compound 437, N-{[4-amino-7-(1H-pyrazol-3-yl)-1H-imidazo[4,5-c]quinolin-2-yl]methyl}-N-ethyl-2-(3-methylphenyl)acetamide] | > 100 µM
11 | CCN(Cc1nc2c(N)nc3cc(-c4cc[nH]n4)ccc3c2[nH]1)C(=O)c1cccnc1 [Compound 438, N-{[4-amino-7-(1H-pyrazol-3-yl)-1H-imidazo[4,5-c]quinolin-2-yl]methyl}-N-ethylpyridine-3-carboxamide] | > 100 µM
12 | CCN(Cc1nc2c(N)nc3cc(-c4cc[nH]n4)ccc3c2[nH]1)C(=O)c1ccccn1 [Compound 439, N-{[4-amino-7-(1H-pyrazol-3-yl)-1H-imidazo[4,5-c]quinolin-2-yl]methyl}-N-ethylpyridine-2-carboxamide] | > 100 µM
13 | CCN(Cc1nc2c(N)nc3cc(-c4cc[nH]n4)ccc3c2[nH]1)C(=O)CC(C)(C)O [Compound 440, N-{[4-amino-7-(1H-pyrazol-3-yl)-1H-imidazo[4,5-c]quinolin-2-yl]methyl}-N-ethyl-3-hydroxy-3-methylbutanamide] | > 100 µM
14 | CCN(Cc1nc2c(N)nc3cc(-c4cc[nH]n4)ccc3c2[nH]1)C(=O)c1ccc(OC)cc1 [Compound 441, N-{[4-amino-7-(1H-pyrazol-3-yl)-1H-imidazo[4,5-c]quinolin-2-yl]methyl}-N-ethyl-4-methoxybenzamide] | > 100 µM

Now from value to molecule:

Row | EC50 | Structure (SMILES)
15 | > 100 µM | CCN(Cc1nc2c(N)nc3cc(-c4cc[nH]n4)ccc3c2[nH]1)C(=O)c1cnccn1 [Compound 442, N-{[4-amino-7-(1H-pyrazol-3-yl)-1H-imidazo[4,5-c]quinolin-2-yl]methyl}-N-ethylpyrazine-2-carboxamide]
16 | > 100 µM | CCN(Cc1nc2c(N)nc3cc(-c4cc[nH]n4)ccc3c2[nH]1)C(=O)Cc1ccccc1 [Compound 443, N-{[4-amino-7-(1H-pyrazol-3-yl)-1H-imidazo[4,5-c]quinolin-2-yl]methyl}-N-ethyl-2-phenylacetamide]
17 | > 100 µM | CCN(Cc1nc2c(N)nc3cc(-c4cc[nH]n4)ccc3c2[nH]1)C(=O)CCCc1ccccc1 [Compound 444, N-{[4-amino-7-(1H-pyrazol-3-yl)-1H-imidazo[4,5-c]quinolin-2-yl]methyl}-N-ethyl-4-phenylbutanamide]
18 | > 100 µM | CCN(Cc1nc2c(N)nc3cc(-c4cc[nH]n4)ccc3c2[nH]1)C(=O)CCC(C)C [Compound 445, N-{[4-amino-7-(1H-pyrazol-3-yl)-1H-imidazo[4,5-c]quinolin-2-yl]methyl}-N-ethyl-4-methylpentanamide]
19 | > 100 µM | CCN(Cc1nc2c(N)nc3cc(-c4cc[nH]n4)ccc3c2[nH]1)C(=O)c1cccn1C [Compound 446, N-{[4-amino-7-(1H-pyrazol-3-yl)-1H-imidazo[4,5-c]quinolin-2-yl]methyl}-N-ethyl-1-methyl-1H-pyrrole-2-carboxamide]
20 | > 100 µM | CCN(Cc1nc2c(N)nc3cc(-c4cc[nH]n4)ccc3c2[nH]1)C(=O)CCc1ccccc1 [Compound 447, N-{[4-amino-7-(1H-pyrazol-3-yl)-1H-imidazo[4,5-c]quinolin-2-yl]methyl}-N-ethyl-3-phenylpropanamide]
21 | > 100 µM | CCN(Cc1nc2c(N)nc3cc(-c4cc[nH]n4)ccc3c2[nH]1)C(=O)c1ccccc1Cl [Compound 449, N-{[4-amino-7-(1H-pyrazol-3-yl)-1H-imidazo[4,5-c]quinolin-2-yl]methyl}-2-chloro-N-ethylbenzamide]
22 | > 100 µM | CCN(Cc1nc2c(N)nc3cc(-c4cc[nH]n4)ccc3c2[nH]1)C(=O)c1ccncc1 [Compound 450, N-{[4-amino-7-(1H-pyrazol-3-yl)-1H-imidazo[4,5-c]quinolin-2-yl]methyl}-N-ethylpyridine-4-carboxamide]
23 | > 100 µM | CCN(Cc1nc2c(N)nc3cc(-c4cc[nH]n4)ccc3c2[nH]1)C(=O)c1cn(C)c2ccccc12 [Compound 451, N-{[4-amino-7-(1H-pyrazol-3-yl)-1H-imidazo[4,5-c]quinolin-2-yl]methyl}-N-ethyl-1-methyl-1H-indole-3-carboxamide]
24 | > 100 µM | CCN(Cc1nc2c(N)nc3cc(-c4cc[nH]n4)ccc3c2[nH]1)C(=O)c1ccc(Cl)cc1 [Compound 452, N-{[4-amino-7-(1H-pyrazol-3-yl)-1H-imidazo[4,5-c]quinolin-2-yl]methyl}-4-chloro-N-ethylbenzamide]

same assay, conditions: numeric bounds

Row | EC50 | Structure (SMILES)
25 | > 10 µM | CCN(Cc1nc2c(N)nc3cc(-c4ccc(C)cc4)ccc3c2[nH]1)C(C)=O [Compound 422]
26 | > 30 µM | N#Cc1ccc(-c2ccc3c(c2)nc(N)c2nc(CN4CCCC4=O)[nH]c23)cc1 [Compound 434]
27 | > 50 µM | CCOC(=O)N(CC)Cc1nc2c(N)nc3cc(-c4cc[nH]n4)ccc3c2[nH]1 [Compound 436, Ethyl N-{[4-amino-7-(1H-pyrazol-3-yl)-1H-imidazo[4,5-c]quinolin-2-yl]methyl}-N-ethylcarbamate]
